# Reference: patent US8282910B2, “Composition for skin or hair” (Shiseido Company Ltd., priority 2007, dated 2012)
# Experiments:
# [1] = background statement; cited from earlier work
# [2] = Solubility of poorly-soluble UV absorbers in oils: dibenzoylmethane derivative (Test Example 3); format: physicochemical; conditions: 4-tert-butyl-4′-methoxydibenzoylmethane dissolved in the oil; supernatant after crystal nuclei, 0° C
# Experimental: (§1) Each of triazine derivative and dibenzoylmethane derivative was warmed and dissolved into each oil shown in Table 2, and then each mixture was cooled to room temperature. After adding crystal nuclei, they were cooled at 0° C. A saturation solubility of each supernatant fluid was measured.
# 4-tert-butyl-4′-methoxydibenzoylmethane was used as a dibenzoylmethane derivative (i.e. component (a)).
# [3] = Solubility of poorly-soluble UV absorbers in oils: triazine derivative (Test Example 3); format: physicochemical; conditions: 2,4-bis{[4-(2-ethylhexyloxy)-2-hydroxy]phenyl}-6-(4-methoxyphenyl) 1,3,5-triazine dissolved in the oil; supernatant after crystal nuclei, 0° C
# Experimental: as §1
# 2,4-bis{[4-(2-ethylhexyloxy)-2-hydroxy]phenyl}-6-(4-methoxyphenyl) 1,3,5-triazine was used as triazine derivative.
Compound,absorption maximum [1],Saturation solubility of dibenzoylmethane derivative [2],Saturation solubility of triazine derivative [3]
COc1ccc(C(=O)CC(=O)c2ccc(C(C)(C)C)cc2)cc1 [4-tert-butyl-4′-methoxydibenzoylmethane],around 360 nm,,
CCCCCCCC(=O)OCC(COC(=O)CCCCCCC)(COC(=O)CCCCCCC)COC(=O)CCCCCCC [Pentaerithrityl tetraoctanoate],,6%,4%
